ChEMBL document CHEMBL3885861, “Open TG-GATES”

Organism: Rattus norvegicus
Assay: Open TG-GATES - Regimen: Daily Repeat
Assay type: toxicity, organism-based, Sprague-Dawley
Design: regimen Daily Repeat, gender Male, age 6 weeks
Conditions: in vivo, po, route gavage; for APTT / Bas / Eos / Fbg / Hb / Ht / Lym / MCH / MCHC / MCV / Mono / Neu / PT / Plat / RBC / Ret / WBC: tissue Blood; for KIDNEY_L / KIDNEY_R / KIDNEY_TOTAL: tissue Kidney; for LIVER: tissue Liver; for A/G / ALP / ALT / AST / BUN / CRE / Ca / Cl / DBIL / GLC / IP / K / LDH / Na / PL / RALB / TBIL / TC / TG / TP / gamma-GTP: tissue Plasma
[1] = 100 mg/kg, 72 h, dose level Middle, time 3 day
[2] = 100 mg/kg, […], dose level Middle, time 7 day
[3] = 100 mg/kg, […], dose level Middle, time 14 day
[4] = 100 mg/kg, […], dose level Middle, time 28 day
[5] = 300 mg/kg, 72 h, dose level High, time 3 day
[6] = 300 mg/kg, […], dose level High, time 7 day
[7] = 300 mg/kg, […], dose level High, time 14 day
[8] = 300 mg/kg, […], dose level High, time 28 day

CC[C@H]1[C@@H]2C[C@H]3[C@@H]4N(C)c5ccccc5[C@]45C[C@@H]([C@@H]2[C@H]5O)N3[C@@H]1O [AJMALINE]
TERMINAL_BW [1]: 207.1 g
APTT [1]: 16.3 s
Bas [1]: 0%
Eos [1]: 1%
Fbg [1]: 202.6 mg/dL
Hb [1]: 12.8 g/dL
Ht [1]: 39.2%
Lym [1]: 79%
MCH [1]: 21.3 pg
MCHC [1]: 32.8%
MCV [1]: 65.1 fL
Mono [1]: 6%
Neu [1]: 13.6%
PT [1]: 11.8 s
Plat [1]: 114.8 x10_4/uL
RBC [1]: 601.8 x10_4/ul
Ret [1]: 7.8%
WBC [1]: 101.3 x10_2/uL
KIDNEY_L [1]: 1 g
KIDNEY_R [1]: 0.9 g
KIDNEY_TOTAL [1]: 1.9 g
LIVER [1]: 9.7 g
A/G [1]: 1.9
ALP [1]: 888.2 IU/L
ALT [1]: 39.2 IU/L
AST [1]: 63 IU/L
BUN [1]: 16.2 mg/dL
CRE [1]: 0.5 mg/dL
Ca [1]: 10.6 mg/dL
Cl [1]: 102.2 meq/L
DBIL [1]: 0.04 mg/dL
GLC [1]: 201 mg/dL
IP [1]: 7.9 mg/dL
K [1]: 4.3 meq/L
LDH [1]: 98.6 IU/L
Na [1]: 139.2 meq/L
PL [1]: 138 mg/dL
RALB [1]: 3.5 g/dL
TBIL [1]: 0.3 mg/dL
TC [1]: 71.8 mg/dL
TG [1]: 81 mg/dL
TP [1]: 5.3 g/dL
gamma-GTP [1]: 1 IU/L
TERMINAL_BW [2]: 245.4 g
TERMINAL_BW [3]: 299.4 g
TERMINAL_BW [4]: 363.5 g
APTT [2]: 16.6 s
Bas [2]: 0%
Eos [2]: 0.8%
Fbg [2]: 231.4 mg/dL
Hb [2]: 13.3 g/dL
Ht [2]: 40.4%
Lym [2]: 78.8%
MCH [2]: 21.1 pg
MCHC [2]: 32.8%
MCV [2]: 64.4 fL
Mono [2]: 7.6%
Neu [2]: 13%
PT [2]: 11.3 s
Plat [2]: 128.6 x10_4/uL
RBC [2]: 628 x10_4/ul
Ret [2]: 6.9%
WBC [2]: 119.7 x10_2/uL
APTT [3]: 16.9 s
Bas [3]: 0%
Eos [3]: 0.8%
Fbg [3]: 231.4 mg/dL
Hb [3]: 14.1 g/dL
Ht [3]: 42.6%
Lym [3]: 80.6%
MCH [3]: 20.4 pg
MCHC [3]: 33.1%
MCV [3]: 61.7 fL
Mono [3]: 5.6%
Neu [3]: 13.4%
PT [3]: 11.2 s
Plat [3]: 140 x10_4/uL
RBC [3]: 690 x10_4/ul
Ret [3]: 4.7%
WBC [3]: 140 x10_2/uL
APTT [4]: 16.5 s
Bas [4]: 0%
Eos [4]: 1%
Fbg [4]: 218.6 mg/dL
Hb [4]: 15.3 g/dL
Ht [4]: 45.6%
Lym [4]: 83%
MCH [4]: 19.2 pg
MCHC [4]: 33.4%
MCV [4]: 57.5 fL
Mono [4]: 4.8%
Neu [4]: 11.2%
PT [4]: 11.5 s
Plat [4]: 123.8 x10_4/uL
RBC [4]: 795 x10_4/ul
Ret [4]: 2.1%
WBC [4]: 123.3 x10_2/uL
KIDNEY_L [2]: 1 g
KIDNEY_R [2]: 1.1 g
KIDNEY_TOTAL [2]: 2.1 g
KIDNEY_L [3]: 1.2 g
KIDNEY_R [3]: 1.2 g
KIDNEY_TOTAL [3]: 2.3 g
KIDNEY_L [4]: 1.3 g
KIDNEY_R [4]: 1.3 g
KIDNEY_TOTAL [4]: 2.6 g
LIVER [2]: 12.2 g
LIVER [3]: 13.4 g
LIVER [4]: 14.6 g
A/G [2]: 2
ALP [2]: 770 IU/L
ALT [2]: 32.8 IU/L
AST [2]: 61.4 IU/L
BUN [2]: 18 mg/dL
CRE [2]: 0.5 mg/dL
Ca [2]: 11.6 mg/dL
Cl [2]: 103.8 meq/L
DBIL [2]: 0.012 mg/dL
GLC [2]: 219.2 mg/dL
IP [2]: 8.7 mg/dL
K [2]: 4.7 meq/L
LDH [2]: 106.8 IU/L
Na [2]: 142.8 meq/L
PL [2]: 154.4 mg/dL
RALB [2]: 3.8 g/dL
TBIL [2]: 0.3 mg/dL
TC [2]: 80 mg/dL
TG [2]: 94.6 mg/dL
TP [2]: 5.7 g/dL
gamma-GTP [2]: 1.4 IU/L
A/G [3]: 1.9
ALP [3]: 802.8 IU/L
ALT [3]: 31.8 IU/L
AST [3]: 65.6 IU/L
BUN [3]: 19.4 mg/dL
CRE [3]: 0.6 mg/dL
Ca [3]: 11 mg/dL
Cl [3]: 104 meq/L
DBIL [3]: 0.012 mg/dL
GLC [3]: 207 mg/dL
IP [3]: 7.6 mg/dL
K [3]: 4.7 meq/L
LDH [3]: 116.4 IU/L
Na [3]: 140.6 meq/L
PL [3]: 153.2 mg/dL
RALB [3]: 3.7 g/dL
TBIL [3]: 0.4 mg/dL
TC [3]: 77 mg/dL
TG [3]: 109.6 mg/dL
TP [3]: 5.7 g/dL
gamma-GTP [3]: 1.2 IU/L
A/G [4]: 1.8
ALP [4]: 699.2 IU/L
ALT [4]: 33.4 IU/L
AST [4]: 59.8 IU/L
BUN [4]: 17.8 mg/dL
CRE [4]: 0.6 mg/dL
Ca [4]: 10.2 mg/dL
Cl [4]: 104.4 meq/L
DBIL [4]: 0.036 mg/dL
GLC [4]: 189.8 mg/dL
IP [4]: 6.6 mg/dL
K [4]: 4.5 meq/L
LDH [4]: 87.6 IU/L
Na [4]: 141.2 meq/L
PL [4]: 131.6 mg/dL
RALB [4]: 3.9 g/dL
TBIL [4]: 0.3 mg/dL
TC [4]: 60.6 mg/dL
TG [4]: 108.4 mg/dL
TP [4]: 6 g/dL
gamma-GTP [4]: 1.6 IU/L
TERMINAL_BW [5]: 209.6 g
APTT [5]: 16.2 s
Bas [5]: 0%
Eos [5]: 1%
Fbg [5]: 214 mg/dL
Hb [5]: 12.9 g/dL
Ht [5]: 39.7%
Lym [5]: 82.8%
MCH [5]: 20.9 pg
MCHC [5]: 32.4%
MCV [5]: 64.4 fL
Mono [5]: 7.2%
Neu [5]: 9.6%
PT [5]: 11.6 s
Plat [5]: 121.1 x10_4/uL
RBC [5]: 616.8 x10_4/ul
Ret [5]: 7.8%
WBC [5]: 133 x10_2/uL
KIDNEY_L [5]: 0.9 g
KIDNEY_R [5]: 0.9 g
KIDNEY_TOTAL [5]: 1.9 g
LIVER [5]: 10.3 g
A/G [5]: 2
ALP [5]: 989.6 IU/L
ALT [5]: 44.2 IU/L
AST [5]: 68.2 IU/L
BUN [5]: 17 mg/dL
CRE [5]: 0.5 mg/dL
Ca [5]: 11.5 mg/dL
Cl [5]: 100.4 meq/L
DBIL [5]: 0.034 mg/dL
GLC [5]: 200 mg/dL
IP [5]: 8.3 mg/dL
K [5]: 4.4 meq/L
LDH [5]: 123.2 IU/L
Na [5]: 138.8 meq/L
PL [5]: 150 mg/dL
RALB [5]: 3.6 g/dL
TBIL [5]: 0.3 mg/dL
TC [5]: 87.6 mg/dL
TG [5]: 57.2 mg/dL
TP [5]: 5.4 g/dL
gamma-GTP [5]: 0.8 IU/L
TERMINAL_BW [6]: 244.7 g
TERMINAL_BW [7]: 293.9 g
TERMINAL_BW [8]: 349.6 g
APTT [6]: 16.4 s
Bas [6]: 0%
Eos [6]: 0.8%
Fbg [6]: 225.6 mg/dL
Hb [6]: 13.2 g/dL
Ht [6]: 39.9%
Lym [6]: 81%
MCH [6]: 21.1 pg
MCHC [6]: 33.1%
MCV [6]: 63.6 fL
Mono [6]: 4.4%
Neu [6]: 13.4%
PT [6]: 11.3 s
Plat [6]: 142.3 x10_4/uL
RBC [6]: 627.2 x10_4/ul
Ret [6]: 7%
WBC [6]: 118.8 x10_2/uL
APTT [7]: 16.3 s
Bas [7]: 0%
Eos [7]: 1%
Fbg [7]: 234.8 mg/dL
Hb [7]: 13.9 g/dL
Ht [7]: 42%
Lym [7]: 83.2%
MCH [7]: 20.8 pg
MCHC [7]: 33.1%
MCV [7]: 62.7 fL
Mono [7]: 4.2%
Neu [7]: 11.8%
PT [7]: 11.2 s
Plat [7]: 140.6 x10_4/uL
RBC [7]: 670 x10_4/ul
Ret [7]: 5.6%
WBC [7]: 139.9 x10_2/uL
APTT [8]: 17.3 s
Bas [8]: 0%
Eos [8]: 1.2%
Fbg [8]: 244.2 mg/dL
Hb [8]: 15.3 g/dL
Ht [8]: 45.1%
Lym [8]: 80.8%
MCH [8]: 19.8 pg
MCHC [8]: 33.9%
MCV [8]: 58.3 fL
Mono [8]: 5%
Neu [8]: 13.4%
PT [8]: 11.3 s
Plat [8]: 141.8 x10_4/uL
RBC [8]: 772.4 x10_4/ul
Ret [8]: 2.8%
WBC [8]: 147.5 x10_2/uL
KIDNEY_L [6]: 1.1 g
KIDNEY_R [6]: 1.1 g
KIDNEY_TOTAL [6]: 2.2 g
KIDNEY_L [7]: 1.2 g
KIDNEY_R [7]: 1.2 g
KIDNEY_TOTAL [7]: 2.4 g
KIDNEY_L [8]: 1.3 g
KIDNEY_R [8]: 1.4 g
KIDNEY_TOTAL [8]: 2.7 g
LIVER [6]: 11.7 g
LIVER [7]: 13.4 g
LIVER [8]: 15.4 g
A/G [6]: 1.9
ALP [6]: 944.4 IU/L
ALT [6]: 37 IU/L
AST [6]: 57.8 IU/L
BUN [6]: 16.8 mg/dL
CRE [6]: 0.5 mg/dL
Ca [6]: 11.6 mg/dL
Cl [6]: 103 meq/L
DBIL [6]: 0.026 mg/dL
GLC [6]: 189.8 mg/dL
IP [6]: 8.3 mg/dL
K [6]: 4.6 meq/L
LDH [6]: 98.8 IU/L
Na [6]: 141.4 meq/L
PL [6]: 142 mg/dL
RALB [6]: 3.5 g/dL
TBIL [6]: 0.4 mg/dL
TC [6]: 80.8 mg/dL
TG [6]: 56.8 mg/dL
TP [6]: 5.4 g/dL
gamma-GTP [6]: 1.2 IU/L
A/G [7]: 2.1
ALP [7]: 849.4 IU/L
ALT [7]: 35.4 IU/L
AST [7]: 62.2 IU/L
BUN [7]: 17.8 mg/dL
CRE [7]: 0.5 mg/dL
Ca [7]: 11.4 mg/dL
Cl [7]: 102.6 meq/L
DBIL [7]: 0.022 mg/dL
GLC [7]: 201.8 mg/dL
IP [7]: 8.2 mg/dL
K [7]: 4.8 meq/L
LDH [7]: 101.8 IU/L
Na [7]: 140 meq/L
PL [7]: 142.4 mg/dL
RALB [7]: 3.7 g/dL
TBIL [7]: 0.5 mg/dL
TC [7]: 73.6 mg/dL
TG [7]: 82 mg/dL
TP [7]: 5.5 g/dL
gamma-GTP [7]: 1.6 IU/L
A/G [8]: 1.8
ALP [8]: 589.2 IU/L
ALT [8]: 38.4 IU/L
AST [8]: 61.8 IU/L
BUN [8]: 19 mg/dL
CRE [8]: 0.7 mg/dL
Ca [8]: 11 mg/dL
Cl [8]: 103.2 meq/L
DBIL [8]: 0.036 mg/dL
GLC [8]: 187.2 mg/dL
IP [8]: 7.3 mg/dL
K [8]: 4.8 meq/L
LDH [8]: 88.4 IU/L
Na [8]: 140.8 meq/L
PL [8]: 172.8 mg/dL
RALB [8]: 3.9 g/dL
TBIL [8]: 0.3 mg/dL
TC [8]: 96.8 mg/dL
TG [8]: 73.6 mg/dL
TP [8]: 6.1 g/dL
gamma-GTP [8]: 1.4 IU/L
